Non-standard residues stand in square brackets, D forms with d. No end group written: not given here.
Experiments:
[1] = test system: isolated perfused rat hearts; experiment: Cardiac function of isolated perfused rat hearts (modified Langendorff) subjected to global I(30 min)/R(45 min); details: for blocking of the cardio-protective effects of tri-peptide: opioid antagonist 5 μM given with tri-peptide 50 μM
[2] = test system: isolated perfused rat hearts; experiment: Infarct size by TTC staining of isolated perfused rat hearts after I(30 min)/R(45 min)
[3] = Ventilator induced diaphragmatic dysfunction
[4] = compared to untreated control I/R hearts, tri-peptide 50 μM
[5] = final value, 45 min reperfusion
[6] = initial (baseline) value, mean ± S.E.M.

Row | Compound | blocking of the cardio-protective effects of tri-peptide [1] | post-reperfused cardiac function [1, 4] | Final +dP/dtmax [1, 5] [mmHg/s] | Final Coronary How [1, 5] [mL/min] | Final Heart Rate [1, 5] [BPM] | Final LVEDP [1, 5] [mmHg] | Final LVESP [1, 5] [mmHg] | Final −dP/dtmin [1, 5] [mmHg/s] | Final LVDP ([1]; final value, 45 min reperfusion, LVDP=LVESP−LVEDP) [mmHg] | Initial +dP/dtmax ([1]; initial (baseline) value) [mmHg/s] | Initial Coronary Flow ([1]; initial (baseline) value) [mL/min] | Initial Heart Rate ([1]; initial (baseline) value) [BPM] | Initial LVDP ([1]; initial (baseline) value, LVDP=LVESP−LVEDP) [mmHg] | Initial LVEDP [1, 6] [mmHg] | Initial LVESP [1, 6] [mmHg] | infarct size ([2]; TTC staining after I(30 min)/R(45 min)) [%] | infarct size [2, 4] | ventilator induced diaphragmatic dysfunction [3]
1 | Oc1ccc2c3c1O[C@H]1c4[nH]c5c(c4C[C@@]4(O)[C@@H](C2)N(CC2CC2)CC[C@]314)C[C@@]1(O)[C@H]2Cc3ccc(O)c4c3[C@@]1(CCN2CC1CC1)[C@H]5O4 [BNI, nor-Binaltorphimine, reference compound] | blocked | – | – | – | – | – | – | – | – | – | – | – | – | – | – | – | – | –
2 | Phe-[dR]-Phe-NH2 [tri-peptide] | – | significantly restored | 1126.8 ± 177.2 | 9.6 ± 1.5 | 276.3 ± 12.6 | 50.1 ± 7.4 | 105.6 ± 6.1 | 965.5 ± 112.1 | 55.5 ± 6.0 | 2376.7 ± 75.1 | 17.7 ± 0.9 | 287.8 ± 8.1 | 94.2 ± 2.7 | 6.7 ± 0.8 | 100.9 ± 3.1 | 26 ± 1 | reduced infarct size | attenuate
3 | Oc1ccc2c3c1O[C@H]1c4[nH]c5ccccc5c4C[C@@]4(O)[C@@H](C2)N(CC2CC2)CC[C@]314 [NALD, naltrindole, reference compound] | not | – | – | – | – | – | – | – | – | – | – | – | – | – | – | – | – | –
